pIC50: −log10 of the molar value.
Assays:
Format in all cases: cell-based
[1] = molecular target: T1, PTGER2 (EP2) (Homo sapiens, UniProt P43116); assay: hEP2 b-Arrestin Assay (PathHunter HEK 293 PTGER2 b-arrestin cells, PGE2 5 μM); details: antagonistic activity, beta-arrestin assay, HEK 293 PTGER2 cells, PGE2 5 μM (EC80); read-out: hEP2 b-arr IC50
T1 construct: host or cells: HEK 293 (PathHunter, stably transfected)
Experimental: (§1) The antagonistic activities of the compounds of formula (I) on the EP2 and EP4 receptors are also determined in accordance with the following experimental method.
The assay is using the PathHunter™ HEK 293 PTGER2 and PTGER4 b-arrestin cell lines from DiscoverX. The system is based on the Enzyme Fragment Complementation Technology. Two complementing fragments of the b-galactosidase enzyme are expressed within stably transfected cells. The larger portion of b-gal, termed EA for Enzyme Acceptor, is fused to the C-terminus of b-arrestin 2. The smaller fragment, termed ProLink™ tag, is fused to PTGER2 (EP2) or PTRGER4 (EP4) at the C-terminus. Upon activation, b-arrestin is recruited which forces the interaction of ProLink and EA, allowing complementation of the two fragments of b-gal and the formation of a functional enzyme which is capable of hydrolysing the substrate and generating a chemiluminescent signal.
The HEK 293 PTGER2 b-arrestin cells (DiscoverX 93-021-4C1) are detached from culture dishes with a cell dissociation buffer (Invitrogen, 13151-014), and collected in growing medium (GM: DMEM+Glutamax-I (Invitrogen 32430)/10% FCS, 1% Penicilin/streptomycin). 5000 cells per well of a 384 well plate (white with white bottom Greiner 781080) are seeded in 20 μl per well of GM. Plate is incubated at 37° C., 5% CO2 for 24 hours.
Stock solutions of test compounds are made at a concentration of 10 mM in DMSO, and serially diluted in DMSO to concentrations required for inhibition dose response curves (tested concentration range 10 μM-2 nM or 1 μM-0.2 nM).
PGE2 (Cayman 14010, stock solution: 10 mM in DMSO) is used as agonist at 5 μM final concentration, corresponding to EC80.
Five microliters of diluted compounds are transferred into the assay plate. Plate is pre-incubated 15 minutes at 37° C. Then five microliters of PGE2 (final conc. 5 μM) are transferred into the assay plate. Plate is incubated 120 minutes at 37° C.
PathHunter Glo Detection Kit components are thawed and mix according to manufacturer's instructions: 1 part Galacton Star Substrate with 5 parts Emerald II™ Solution, and 19 parts of PathHunter Cell Assay Buffer, respectively. Twelve μl of reagent are transferred to the assay plate and incubate for 1 hour at room temperature in the dark. Luminescence counts are read on a BMG Fluostar Optima reader according to manufacturer's instructions.
For each compound concentration calculate of the percentage of activity compared to DMSO control value as average ±STDEV. (each concentration is measured in duplicate)
(§2) IC50 values and curves are generated with XLfit software (IDBS) using Dose-Response One Site model 203. When compounds were measured multiple times, mean values are given.

[2] = molecular target: T2, EP2 (Homo sapiens, UniProt P43116); assay: hEP2 cAMP Assay (SF295 glioblastoma cells, HTRF cAMP, PGE2 75 nM); details: antagonistic activity, PGE2 75 nM (EC80)
T2 construct: SF295 glioblastoma cells express high endogenous EP2 and no EP4; host or cells: SF295 glioblastoma cells
Experimental: as §1
(§3) Human tumor cell lines expressing endogenously either EP4 or EP2 are used and cAMP accumulation in cells upon PGE2 stimulation is monitored. SF295 glioblastoma cells express high endogenous EP2 and no EP4, whereas BT549 breast cancer cells, express high endogenous EP4 levels and very low EP2 levels.
(§4) As a detection method for cAMP the HTRF (homogeneous time resolved fluorescence) Cisbio kit (HTRF cAMP dynamic 2 kit 20′000 tests Cisbio Cat. #62AM4PEC) was used, which is based on a competitive immunoassay using a Cryptate-labeled anti-cAMP antibody and d2-labeled cAMP. Native cAMP produced by cells or unlabeled cAMP (for the standard curve) compete with exogenously added d2-labeled cAMP (acceptor) for binding to monoclonal anti-cAMP-Eu3+Cryptate (donor). A FRET signal (Fluorescence Resonance Energy Transfer) is obtained only if the labeled anti-cAMP antibody binds the d2 labelled cAMP, thus the specific signal (i.e. energy transfer) is inversely proportional to the concentration of cAMP in the standard or sample.
(§5) The SF295 cells (NCI/No. 0503170) are detached from culture dishes with a cell dissociation buffer (Invitrogen, 13151-014), and collected in growing medium (GM: RPM11640 (Invitrogen 21875)/10% FCS, 1% Penicilin/streptomycin). Cells are counted washed and resuspended in assay buffer (AB; HBSS, 20 mM HEPES, 0.2% BSA; 2 mM IBMX). 4′000 cells in 5 μL of AB are seeded per well of a small volume 384 well plate (black with flat bottom, Greiner 784076).
(§6) Stock solutions of test compounds are made at a concentration of 10 mM in DMSO, and serially diluted in DMSO to concentrations required for inhibition dose response curves (tested concentration range 30 μM-0.4 nM; 30 μM-0.015 nM or 1 μM-0.01 nM).
PGE2 (Cayman 14010, stock solution: 75 μM in DMSO) is used as agonist at 75 nM final concentration, corresponding to EC80.
(§7) 2.5 μL of diluted compounds are transferred into the assay plate. Plate is pre-incubated 45 minutes at room temperature. Subsequently, 2.5 μL of PGE2 (final conc. 75 nM) are transferred into the assay plate. Plate is incubated 30 minutes at room temperature. Five μL of each donor (anti-cAMP cryptate) and acceptor (cAMP-d2) are added and the plate is incubated another hour at room temperature in the dark and then read using a BMG LABTECH PHERAstar reader (Excitation: 337 nm, Emission: 620 and 665 nm).
(§8) The obtained Delta F (fluorescence) values (665 nm/620 nM) are converted into % cAMP values using the measurements of the cAMP calibrator provided in the kit. For each compound concentration the percentage of cAMP compared to DMSO control value as average ±STDEV (each concentration is measured in duplicate) is calculated.
as §2

[3] = molecular target: T3, EP4 (Homo sapiens, UniProt P35408); assay: hEP4 cAMP Assay (BT549 breast cancer cells, HTRF cAMP, PGE2 6 nM); details: antagonistic activity, PGE2 6 nM (EC80)
T3 construct: BT549 breast cancer cells, express high endogenous EP4 levels and very low EP2 levels; host or cells: BT549 breast cancer cells
Experimental: as §1, §3, §4
as §5, with “BT549” for “SF295”, “0507282)” for “0503170)”, “RPMI1640” for “RPM11640”
as §6
PGE2 (Cayman 14010, stock solution: 6 uM in DMSO) is used as agonist at 6 nM final concentration, corresponding to EC80.
as §7, with “6” for “75”, “5” for “Five”
as §8, §2

T1 sequence (P43116 whole entry): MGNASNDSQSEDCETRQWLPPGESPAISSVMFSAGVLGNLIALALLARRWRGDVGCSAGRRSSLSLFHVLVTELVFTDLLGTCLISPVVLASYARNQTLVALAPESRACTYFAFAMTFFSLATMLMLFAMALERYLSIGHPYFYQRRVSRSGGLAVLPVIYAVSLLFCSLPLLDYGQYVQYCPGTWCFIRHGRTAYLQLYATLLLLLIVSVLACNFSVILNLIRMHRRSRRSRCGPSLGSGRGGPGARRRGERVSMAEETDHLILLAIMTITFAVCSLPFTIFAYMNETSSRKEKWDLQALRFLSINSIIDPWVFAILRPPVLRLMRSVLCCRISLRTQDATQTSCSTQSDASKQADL
T2 sequence (P43116 whole entry): as above
T3 sequence (P35408 whole entry): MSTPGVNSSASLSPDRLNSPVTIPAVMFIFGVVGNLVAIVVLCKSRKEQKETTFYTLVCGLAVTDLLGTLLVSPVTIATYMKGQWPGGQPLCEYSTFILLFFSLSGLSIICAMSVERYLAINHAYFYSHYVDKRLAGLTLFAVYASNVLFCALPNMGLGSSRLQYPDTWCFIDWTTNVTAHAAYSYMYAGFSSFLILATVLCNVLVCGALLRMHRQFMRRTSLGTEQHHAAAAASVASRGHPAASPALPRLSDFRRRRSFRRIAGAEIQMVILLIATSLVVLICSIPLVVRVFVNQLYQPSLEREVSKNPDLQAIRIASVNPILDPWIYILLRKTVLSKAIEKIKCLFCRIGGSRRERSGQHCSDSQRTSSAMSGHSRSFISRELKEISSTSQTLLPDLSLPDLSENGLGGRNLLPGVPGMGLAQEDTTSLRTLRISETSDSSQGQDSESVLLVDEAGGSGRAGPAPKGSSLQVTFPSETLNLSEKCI

Compound | pIC50 [1] | pIC50 [2] | pIC50 [3]
O=C(O)c1ccc(-c2cc(NCCc3ccc(Cl)c4ccccc34)ncn2)cc1OC1CCC1 [Example 61, 4-{6-[2-(4-Chloro-naphthalen-1-yl)-ethylamino]-pyrimidin-4-yl}-2-cyclobutoxy-benzoic acid] | 6.95 | 6.74 | 6.13
CCOc1cc(-c2cc(NCCc3c(F)ccc4ccccc34)ncn2)ccc1OCC(=O)O [Example 96, (2-Ethoxy-4-{6-[2-(2-fluoro-naphthalen-1-yl)-ethylamino]-pyrimidin-4-yl}-phenoxy)-acetic acid] | 7.18 | 6.74 | 6.37
CCCCOc1cc(-c2cc(NCCc3c(OC)ccc4ccccc34)ncn2)cc(F)c1C(=O)O [Example 124, 2-Butoxy-6-fluoro-4-{6-[2-(2-methoxy-naphthalen-1-yl)-ethylamino]-pyrimidin-4-yl}-benzoic acid] | 7.46 | 7.00 | 6.35
COc1ccc2ncccc2c1CCNc1cc(-c2ccc(-c3c(O)c(=O)c3=O)cc2)ncn1 [Example 91, 3-Hydroxy-4-(4-{6-[2-(6-methoxy-quinolin-5-yl)-ethylamino]-pyrimidin-4-yl}-phenyl)-cyclobut-3-ene-1,2-dione] | 6.84 | 6.64 | 6.09
O=C(O)c1ccc(-c2cc(NCCc3cccc4ccsc34)ncn2)cc1OC1CCC1 [Example 102, 4-[6-(2-Benzo[b]thiophen-7-yl-ethylamino)-pyrimidin-4-yl]-2-cyclobutoxy-benzoic acid] | 6.84 | 6.65 | 6.58
CCOc1cc(-c2cc(NCCc3c(C)ccc4c3cnn4C)ncn2)ccc1O [Example 111, 4-{6-[2-(1,5-Dimethyl-1H-indazol-4-yl)-ethylamino]-pyrimidin-4-yl}-2-ethoxy-phenol] | 7.30 | 6.77 | 6.07
CCOc1cc(-c2cc(NCCc3c(OC)ccc4c(OC)cccc34)ncn2)ccc1C(=O)O [Example 54, 4-{6-[2-(2,5-Dimethoxy-naphthalen-1-yl)-ethylamino]-pyrimidin-4-yl}-2-ethoxy-benzoic acid] |  | 6.06 | 6.38
O=C(O)c1sc(-c2cc(NCCc3cccc4cccnc34)ncn2)cc1C(F)(F)F [Example 82, 5-[6-(2-Quinolin-8-yl-ethylamino)-pyrimidin-4-yl]-3-trifluoromethyl-thiophene-2-carboxylic acid] |  | 6.01 | 6.02
CCOc1cc(-c2cc(NCCc3cccc4cc(C)n(C)c34)ncn2)ccc1OCC(=O)O [Example 57, (4-{6-[2-(1,2-Dimethyl-1H-indol-7-yl)-ethylamino]-pyrimidin-4-yl}-2-ethoxy-phenoxy)-acetic acid] |  | 6.29 | 6.02
CCOc1cc(-c2cc(NCCc3cccc4sccc34)ncn2)ccc1OCC(=O)O [Example 109] |  | 6.14 | 6.34
CCOc1cc(-c2cc(NCCc3cccc4ccoc34)ncn2)ccc1OCC(=O)O [Example 51] |  | 6.33 | 6.07

More lines, in order of rising pIC50 [2], values ahead:

pIC50 [1] | pIC50 [2] | pIC50 [3] | Compound
7.03 | 6.81 | 6.19 | CCOc1cc(-c2cc(NCCc3c(OC)ccc4ncccc34)ncn2)ccc1NCC(=O)O [Example 88, (2-Ethoxy-4-{6-[2-(6-methoxy-quinolin-5-yl)-ethylamino]-pyrimidin-4-yl}-phenylamino)-acetic acid]
6.89 | 6.89 | 6.21 | CCOc1cc(-c2cc(NCCc3cccc4ccsc34)ncn2)ccc1C(=O)O [Example 101, 4-[6-(2-Benzo[b]thiophen-7-yl-ethylamino)-pyrimidin-4-yl]-2-ethoxy-benzoic acid]
7.44 | 7.24 | 6.45 | CCOc1cc(-c2cc(NCCc3c(OC)ccc4ncccc34)ncn2)ccc1O [Example 90, 2-Ethoxy-4-{6-[2-(6-methoxy-quinolin-5-yl)-ethylamino]-pyrimidin-4-yl}-phenol]
7.21 | 7.39 | 6.51 | COc1ccc2ccccc2c1CCNc1cc(-c2ccc(C(=O)O)c(CC(C)C)c2)ncn1 [Example 122, 2-Isobutyl-4-{6-[2-(2-methoxy-naphthalen-1-yl)-ethylamino]-pyrimidin-4-yl}-benzoic acid]
6.65 | 7.46 | 6.31 | Cc1ccc2c(cnn2C)c1CCNc1cc(-c2ccc3ncccc3c2)ncn1 [Example 114, [2-(1,5-Dimethyl-1H-indazol-4-yl)-ethyl]-(6-quinolin-6-yl-pyrimidin-4-yl)-amine]
7.51 | 7.54 | 6.26 | CCCc1cc(-c2cc(NCCc3c(OC)ccc4ccccc34)ncn2)cc(F)c1C(=O)O [Example 123, 2-Fluoro-4-{6-[2-(2-methoxy-naphthalen-1-yl)-ethylamino]-pyrimidin-4-yl}-6-propyl-benzoic acid]
7.06 | 7.82 | 6.54 | COc1ccc2ccccc2c1CCNc1cc(-c2cc3c(C(=O)O)cccc3[nH]2)ncn1 [Example 129, 2-{6-[2-(2-Methoxy-naphthalen-1-yl)-ethylamino]-pyrimidin-4-yl}-1H-indole-4-carboxylic acid]

Reference: patent US11446298B2, “Pyrimidine derivatives” (Idorsia Pharmaceuticals Ltd, priority 2017, dated 2022)
